# Data as given in PMC11809180, “RA-PR058, a novel ramalin derivative, reduces BACE1 expression and phosphorylation of tau in Alzheimer’s disease mouse models” (Animal Cells and Systems, 2025).
# Where two headings read alike, the source gives them in different places.
# Columns and labels:
# [1] = Plasma and brain pharmacokinetics after oral administration; format: in vivo; settings: Sprague-Dawley, rat, 10 mg/kg oral, S.D. rats; for AUC(0-t): read-out: AUC0-7h
# Procedure: Pharmacokinetic assays were conducted by NeuroVis (Republic of Korea). 10 mg/kg of RA-PR058 was administered to Sprague–Dawley rats by either oral administration route or intravenous injection route. Blood sampling was conducted using the BASi Culex ABS system. After cannulation, catheters were inserted into the jugular vein and the carotid artery of the rats, with the system programmed to collect 200 μL samples. Collected blood samples were centrifuged at 12,000 x rpm for 10 minutes to separate plasma, which was then immediately stored at −80 ℃. For brain pharmacokinetics, 10 mg/kg of RA-PR058 was administered orally to Sprague–Dawley rats, followed by collection of both blood and brain tissue. After collection, samples were mixed with the internal standard, ofloxacin, and centrifuged at 13,000 x rpm for 5 minutes at 4 ℃. The resulting supernatants were then combined with 50% methanol and analyzed by LC-MS/MS.
# [2] = tested on: 5xFAD hippocampal neurons; test: vGlut1-pHluorin (vG-pH) synaptic transmission assay in primary hippocampal neurons; format: cell-based, mouse
# Procedure: Hippocampal CA1-CA3 regions were isolated from postnatal (0–3 d old) 5xFAD mice. For dissociation, the dissected tissues were incubated with trypsin (Sigma) and DNase (Sigma) for 10 minutes at 37 ℃, followed by gentle trituration with pipette. 4.0–5.0 × 10^4 cells were plated on poly-ornithine-coated coverslips. Cells were maintained in culture media consisting of Neurobasal™-A Medium (Gibco) supplemented with GlutaMAX™ Supplement (Gibco) and B-27™ Supplement (Gibco) in a humidified incubator set at 37 ℃ with 5% CO2. Neurons were transfected 7 days after plating and further incubated for 14–21 days in culture medium. All results are obtained from at least three independent primary cultures. […]
# For optical imaging, primary cultured hippocampal neurons were transfected with vGlut1-pHluorin (vG-pH) using the Ca^2+ phosphate precipitation method, as previously described (Bae et al. ([2020])). […] Fluorescence excitation/emission and collection were achieved using a 40 × Fluar Zeiss objective lens (1.3 NA) and 500–550 nm emission and 498 nm dichroic filters (Chroma). […]
# All images were analyzed using ImageJ with plugin Time Series Analyzer. Synaptic boutons were selected as oval regions of interest (diameter, 10 pixels), and the intensity of fluorescence at synapses was measured. Fluorescence traces were analyzed using Origin Pro.
# BACE1 = BACE1 expression in SH-SY5Y cells under H2O2 oxidative stress (western blot); format: cell-based, human; settings: 10 μM RA-PR058 24 hours, then 200 μM H2O2 4 hours, normalized with β-Actin, n = 4
# Procedure: Human neuroblastoma cell line, SH-SY5Y were maintained in DMEM (Welgene) supplemented with 10% fetal bovine serum (FBS, Gibco) and 1% penicillin/streptomycin (Capricorn) at 37 °C in a humidified atmosphere containing 5% CO2. […] [2024]). Samples for western blot analysis were prepared as previously described (Gwon et al. [2012]). Cells were lysed with T-PER^TM Tissue Protein Extraction Reagent (Thermo Fisher Scientific) supplemented with protease/phosphatase inhibitor cocktail (Thermo Fisher Scientific) and incubated at 4 °C for 10 minutes. After incubation, lysed samples were centrifuged at 13,000 x rpm for 10 minutes at 4 °C and the supernatant were used for western blot analysis. The cortices and hippocampi tissues were homogenized using RIPA lysis buffer (Millipore) supplemented with protease/phosphatase inhibitor cocktail and incubated at 4 °C for 30 minutes. Following incubation, lysed tissues were centrifuged at 13,000 x rpm for 30 minutes at 4 °C and the supernatant were used for western blot analysis. Protein concentrations were measured using Pierce^TM BCA Protein Assay Kits (Thermo Fisher Scientific). Equal amounts of proteins were mixed with NuPAGE^TM LDS Sample Buffer (Invitrogen) and 5% 2-mercaptoethanol (Sigma) and then boiled at 95 °C for 5 minutes. […] Protein bands were quantified using ImageJ (NIH).
smiles,measurement,setting,value
"Cl.N[C@@H](CCC(=O)NNc1ccccc1F)C(F)F [RA-PR058, (S)-4-amino-5,5-difluoro-N'-(2-fluorophenyl)pentanehydrazide hydrochloride]",Kp,"[1]; brain and plasma, read-out: Brain-to-plasma AUC ratio (AUC0–7h)",0.916
same,Cmax,[1]; Brain,3190 ng/mL
same,half-life,[1]; Brain,1.57 h
same,AUC(0-t),[1]; Brain,6090 ng·h/mL
same,Cmax,[1]; Plasma,3900 ng/mL
same,half-life,[1]; Plasma,1.06 h
same,AUC(0-t),[1]; Plasma,5700 ng·h/mL
same,Recovery of synaptic transmission dysfunction,"[2]; 5xFAD hippocampal neurons, 10 μM RA-PR058, 100 AP at 10 Hz, did not reach statistical significance",partially recovered
same,Mean amplitude of 100AP vG-pH response,"[2]; RA-PR058 treated 5xFAD hippocampal neurons, 10 Hz for 10 s, normalized to maximal NH4Cl response, mean ± SEM, n = 6, untreated 5xFAD 0.11 ± 0.01, WT 0.20 ± 0.01",0.15 ± 0.03
same,H2O2-induced increase in BACE1 expression,BACE1,markedly attenuated
